Experimental findings from patent US10584128B2, “Bicyclic dihydropyrimidine-carboxamide derivatives as Rho-Kinase inhibitors” (CHIESI FARMACEUTICI S.p.A., priority 2016, dated 2020) are described below.

Molecules are shown by their SMILES.

Experiment [1] concerns the target Rho kinase 1 (Homo sapiens, UniProt Q13464). Briefly: In vitro Rho kinase inhibitory activity assay (ADP-Glo kit, Myelin Basic Protein substrate). The class given is biochemical. The following applies: 10 μM ATP, 25° C., read-out: ROCK1 inhibitory activity (Ki, range of activity). The essentials:
(§1)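 Kinase activity is measured as ADP production (ADP-Glo, luminescence) after 1 hour at 25 °C with 10 μM ATP and 2.5 μM Myelin Basic Protein, following 30 min enzyme–compound preincubation. Buffer is 40 mM Tris pH7.5, 20 mM MgCl2, 0.1 mg/ml BSA, 50 μM DTT.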

The target in experiment [2] is Rho kinase 2 (Homo sapiens, UniProt O75116). The description is as above. The following applies: 10 μM ATP, 25° C., read-out: ROCK2 inhibitory activity (Ki, range of activity). The experiment is classed as biochemical. The essentials: as §1
Rho kinase 2, sequence (O75116 whole entry): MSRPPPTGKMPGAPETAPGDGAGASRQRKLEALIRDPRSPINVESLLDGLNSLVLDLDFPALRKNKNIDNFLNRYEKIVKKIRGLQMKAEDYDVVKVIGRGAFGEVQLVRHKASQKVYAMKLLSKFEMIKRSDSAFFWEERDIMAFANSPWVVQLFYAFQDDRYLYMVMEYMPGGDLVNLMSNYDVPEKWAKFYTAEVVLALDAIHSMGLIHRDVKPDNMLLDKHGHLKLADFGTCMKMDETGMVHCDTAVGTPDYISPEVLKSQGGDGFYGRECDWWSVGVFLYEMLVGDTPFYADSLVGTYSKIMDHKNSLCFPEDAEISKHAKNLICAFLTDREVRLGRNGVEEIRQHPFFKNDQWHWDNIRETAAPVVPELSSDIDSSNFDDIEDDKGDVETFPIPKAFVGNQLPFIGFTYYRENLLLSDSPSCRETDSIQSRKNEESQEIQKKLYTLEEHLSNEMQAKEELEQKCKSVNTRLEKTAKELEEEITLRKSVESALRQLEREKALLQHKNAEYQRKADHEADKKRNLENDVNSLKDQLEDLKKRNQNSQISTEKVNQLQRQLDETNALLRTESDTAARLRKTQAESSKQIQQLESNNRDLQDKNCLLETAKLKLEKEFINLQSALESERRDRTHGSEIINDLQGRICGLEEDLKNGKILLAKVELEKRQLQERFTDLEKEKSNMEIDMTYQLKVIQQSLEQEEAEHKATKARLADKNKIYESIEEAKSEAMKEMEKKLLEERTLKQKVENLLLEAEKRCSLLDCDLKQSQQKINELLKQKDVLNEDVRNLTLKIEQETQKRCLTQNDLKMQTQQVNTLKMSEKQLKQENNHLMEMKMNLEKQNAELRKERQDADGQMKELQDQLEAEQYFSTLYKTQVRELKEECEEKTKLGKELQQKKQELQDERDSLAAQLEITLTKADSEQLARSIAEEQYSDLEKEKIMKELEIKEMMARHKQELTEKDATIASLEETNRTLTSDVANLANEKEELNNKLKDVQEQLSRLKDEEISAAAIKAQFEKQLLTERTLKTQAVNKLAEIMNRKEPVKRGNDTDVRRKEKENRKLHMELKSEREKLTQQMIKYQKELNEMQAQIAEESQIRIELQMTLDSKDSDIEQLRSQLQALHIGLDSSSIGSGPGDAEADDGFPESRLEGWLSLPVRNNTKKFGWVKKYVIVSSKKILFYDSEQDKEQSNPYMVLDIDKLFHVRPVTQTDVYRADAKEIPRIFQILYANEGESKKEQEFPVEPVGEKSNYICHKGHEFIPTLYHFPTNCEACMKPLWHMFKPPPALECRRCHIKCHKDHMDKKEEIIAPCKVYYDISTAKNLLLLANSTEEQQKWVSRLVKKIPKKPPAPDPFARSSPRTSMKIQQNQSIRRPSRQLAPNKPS

Rho kinase 1, sequence (Q13464 whole entry): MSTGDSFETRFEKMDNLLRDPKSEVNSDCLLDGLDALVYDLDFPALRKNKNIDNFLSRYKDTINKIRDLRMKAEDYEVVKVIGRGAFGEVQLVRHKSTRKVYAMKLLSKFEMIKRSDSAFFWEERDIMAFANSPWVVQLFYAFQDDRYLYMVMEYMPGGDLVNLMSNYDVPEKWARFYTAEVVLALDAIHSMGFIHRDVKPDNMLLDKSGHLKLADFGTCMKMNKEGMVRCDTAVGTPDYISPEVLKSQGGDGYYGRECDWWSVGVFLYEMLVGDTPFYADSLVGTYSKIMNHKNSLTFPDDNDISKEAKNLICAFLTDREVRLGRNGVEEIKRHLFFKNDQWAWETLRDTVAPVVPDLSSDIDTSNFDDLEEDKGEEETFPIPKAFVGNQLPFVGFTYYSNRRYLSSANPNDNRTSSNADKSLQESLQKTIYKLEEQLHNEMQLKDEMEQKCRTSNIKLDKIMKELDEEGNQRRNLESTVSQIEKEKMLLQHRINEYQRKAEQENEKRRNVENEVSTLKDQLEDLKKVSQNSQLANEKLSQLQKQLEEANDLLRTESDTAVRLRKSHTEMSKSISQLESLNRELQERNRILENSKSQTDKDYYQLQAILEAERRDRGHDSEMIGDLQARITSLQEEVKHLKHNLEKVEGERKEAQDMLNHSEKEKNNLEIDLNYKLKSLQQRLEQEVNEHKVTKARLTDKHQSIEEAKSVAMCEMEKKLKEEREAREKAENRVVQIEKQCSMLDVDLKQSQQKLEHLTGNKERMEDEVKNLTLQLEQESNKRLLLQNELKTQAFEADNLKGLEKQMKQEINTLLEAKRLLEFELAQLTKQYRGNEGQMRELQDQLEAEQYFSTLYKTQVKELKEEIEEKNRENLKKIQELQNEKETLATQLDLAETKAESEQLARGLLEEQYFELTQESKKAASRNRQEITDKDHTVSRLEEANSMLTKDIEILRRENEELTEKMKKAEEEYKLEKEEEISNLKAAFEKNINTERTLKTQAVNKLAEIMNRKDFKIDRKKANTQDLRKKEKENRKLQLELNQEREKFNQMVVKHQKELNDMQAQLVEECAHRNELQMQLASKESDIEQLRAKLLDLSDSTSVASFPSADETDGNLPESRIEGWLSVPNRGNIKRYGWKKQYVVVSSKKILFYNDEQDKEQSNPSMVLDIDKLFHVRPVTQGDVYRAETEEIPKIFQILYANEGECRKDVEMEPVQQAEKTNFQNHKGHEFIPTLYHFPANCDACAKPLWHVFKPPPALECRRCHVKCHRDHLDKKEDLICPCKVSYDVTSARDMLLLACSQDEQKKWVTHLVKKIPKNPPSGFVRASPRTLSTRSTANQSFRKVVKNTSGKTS

Regarding `CCOC(=O)c1cc2n(n1)C(c1ccc(O)c(F)c1)C(C(=O)Nc1ccc3cnccc3c1)=C(C)N2` (stereo not shown) [Example 10, ethyl 7-(3-fluoro-4-hydroxyphenyl)-6-(isoquinolin-6-ylcarbamoyl)-5-methyl-4,7-dihydropyrazolo[1,5-a]pyrimidine-2-carboxylate], the Ki in experiment [1] and in experiment [2] was under 0.05 µM throughout.

In the case of `CCOC(=O)c1cc2n(n1)C(c1ccc(C(F)(F)F)c(F)c1)C(C(=O)Nc1ccc3cnccc3n1)=C(C)N2` (stereo not shown) [Example 113, ethyl 6-((1,6-naphthyridin-2-yl)carbamoyl)-7-(3-fluoro-4-(trifluoromethyl)phenyl)-5-methyl-4,7-dihydropyrazolo[1,5-a]pyrimidine-2-carboxylate], the Ki in experiment [1] and in experiment [2] was under 0.05 µM throughout.

In the case of `CC1=C(C(=O)Nc2ccc3cnccc3c2)C(c2ccc(Cl)cc2)n2nc(CO)cc2N1` (single isomer, unassigned) [Example 62B, 7-(4-chlorophenyl)-2-(hydroxymethyl)-N-(isoquinolin-6-yl)-5-methyl-4,7-dihydropyrazolo[1,5-a]pyrimidine-6-carboxamide], the Ki in experiment [1] and in experiment [2] was 0.05 to 0.5 µM each time.

`CC1=C(C(=O)Nc2ccc3[nH]ncc3c2)C(c2ccc(F)cc2)n2nc(C(=O)O)cc2N1` (stereo not shown) [Example 75, 6-((1H-indazol-5-yl)carbamoyl)-7-(4-fluorophenyl)-5-methyl-4,7-dihydropyrazolo[1,5-a]pyrimidine-2-carboxylic acid]: the Ki in experiment [1] and in experiment [2] was under 0.05 µM throughout.

With `CC1=C(C(=O)Nc2ccc3cnccc3c2)C(c2ccc(C(F)(F)F)c(F)c2)n2nc(CN3CCCC3)cc2N1` (stereo not shown) [Example 102, 7-(3-fluoro-4-(trifluoromethyl)phenyl)-N-(isoquinolin-6-yl)-5-methyl-2-(pyrrolidin-1-ylmethyl)-4,7-dihydropyrazolo[1,5-a]pyrimidine-6-carboxamide], the inhibition constant (Ki) in experiment [1] and in experiment [2] was under 0.05 µM throughout.

Consider `CC1=C(C(=O)Nc2ccc3cnccc3c2)C(C2COc3ccccc3O2)n2nc(CO)cc2N1` (single isomer, unassigned) [Example 72A, 7-(2,3-dihydrobenzo[b][1,4]dioxin-2-yl)-2-(hydroxymethyl)-N-(isoquinolin-6-yl)-5-methyl-4,7-dihydropyrazolo[1,5-a]pyrimidine-6-carboxamide], for which the Ki in experiment [1] and in experiment [2] was under 0.05 µM in each case.

Consider `CC1=C(C(=O)Nc2ccc3[nH]ncc3c2)C(c2ccc(F)cc2)n2nc(C(C)(C)C)cc2N1` (stereo not shown) [Example 29, 2-(tert-butyl)-7-(4-fluorophenyl)-N-(1H-indazol-5-yl)-5-methyl-4,7-dihydropyrazolo[1,5-a]pyrimidine-6-carboxamide], for which the Ki in experiment [1] and in experiment [2] was under 0.05 µM throughout.

Turning to `CCOC(=O)c1cc2n(n1)C(c1ccc(C(F)(F)F)cc1)C(C(=O)Nc1ccc3cnccc3c1)=C(C)N2` (stereo not shown) [Example 1, ethyl 6-(isoquinolin-6-ylcarbamoyl)-5-methyl-7-(4-(trifluoromethyl)phenyl)-4,7-dihydropyrazolo[1,5-a]pyrimidine-2-carboxylate], the Ki in experiment [1] and in experiment [2] was under 0.05 µM in each case.

For the compound `CC1=C(C(=O)Nc2ccc3cnccc3c2)C(c2ccc(C(F)(F)F)c(F)c2)n2nc(C(=O)NCCN3CCCCC3)nc2N1` (single isomer, unassigned) [Example 129a, 7-(3-fluoro-4-(trifluoromethyl)phenyl)-N6-(isoquinolin-6-yl)-5-methyl-N2-(2-(piperidin-1-yl)ethyl)-4,7-dihydro-[1,2,4]triazolo[1,5-a]pyrimidine-2,6-dicarboxamide], the Ki in experiment [1] and in experiment [2] was under 0.05 µM in each case.

For `CC1=C(C(=O)Nc2ccc3cnccc3c2)C(c2ccc(C(F)(F)F)c(F)c2)n2nc(C3CCN(C(=O)CCN4CCCCC4)CC3)cc2N1` (single isomer, unassigned) [135B], the Ki in experiment [1] and in experiment [2] was under 0.05 µM throughout.

`CCOC(=O)c1cc2n(n1)C(c1ccc(C(F)(F)F)cc1)C(C(=O)Nc1ccc3[nH]ncc3c1)=C(C)N2` (stereo not shown) [Example 2, ethyl 6-((1H-indazol-5-yl)carbamoyl)-5-methyl-7-(4-(trifluoromethyl)phenyl)-4,7-dihydropyrazolo[1,5-a]pyrimidine-2-carboxylate]: the inhibitory constant (Ki) in experiment [1] and in experiment [2] was under 0.05 µM each time.

With `CC1=C(C(=O)Nc2ccc3cnccc3c2)C(c2ccc(C(F)(F)F)c(F)c2)n2nc(C(=O)N(C)CC3CCN(C)CC3)cc2N1` (stereo not shown) [Example 85, 7-(3-fluoro-4-(trifluoromethyl)phenyl)-N6-(isoquinolin-6-yl)-N2,5-dimethyl-N2-((1-methylpiperidin-4-yl)methyl)-4,7-dihydropyrazolo[1,5-a]pyrimidine-2,6-dicarboxamide], the Ki in experiment [1] and in experiment [2] was under 0.05 µM each time.

`CC1=C(C(=O)Nc2ccc3[nH]ncc3c2)C(c2ccc(C(F)(F)F)c(F)c2)n2nnnc2N1` (single isomer, unassigned) [Example 25A, 7-(3-fluoro-4-(trifluoromethyl)phenyl)-N-(1H-indazol-5-yl)-5-methyl-4,7-dihydrotetrazolo[1,5-a]pyrimidine-6-carboxamide]: the inhibition constant (Ki) in experiment [1] and in experiment [2] was under 0.05 µM each time.

With `COCc1cc2n(n1)C(c1ccc3cc[nH]c3c1)C(C(=O)Nc1ccc3cnccc3c1)=C(C)N2` (stereo not shown) [Example 38, 7-(1H-indol-6-yl)-N-(isoquinolin-6-yl)-2-(methoxymethyl)-5-methyl-4,7-dihydropyrazolo[1,5-a]pyrimidine-6-carboxamide], the Ki in experiment [1] and in experiment [2] was under 0.05 µM in each case.

Take `CCOC(=O)c1cc2n(n1)C(c1ccc(Cl)cc1F)C(C(=O)Nc1ccc3[nH]ncc3c1)=C(C)N2` (single isomer, unassigned) [Example 7B, ethyl 6-((1H-indazol-5-yl)carbamoyl)-7-(4-chloro-2-fluorophenyl)-5-methyl-4,7-dihydropyrazolo[1,5-a]pyrimidine-2-carboxylate]: the Ki in experiment [1] and in experiment [2] was under 0.05 µM in each case.

Regarding `CC1=C(C(=O)Nc2ccc3cnccc3c2)C(C2COc3ccccc3O2)n2nc(CO)cc2N1` (single isomer, unassigned) [Example 72D, 7-(2,3-dihydrobenzo[b][1,4]dioxin-2-yl)-2-(hydroxymethyl)-N-(isoquinolin-6-yl)-5-methyl-4,7-dihydropyrazolo[1,5-a]pyrimidine-6-carboxamide], the Ki in experiment [1] and in experiment [2] was 0.05 to 0.5 µM in each case.

For `CC1=C(C(=O)Nc2ccc3[nH]ncc3c2)C(c2ccc(Cl)nc2)n2nc(C(F)(F)F)cc2N1` (single isomer, unassigned) [Example 32A, 7-(6-chloropyridin-3-yl)-N-(1H-indazol-5-yl)-5-methyl-2-(trifluoromethyl)-4,7-dihydropyrazolo[1,5-a]pyrimidine-6-carboxamide], the Ki in experiment [1] and in experiment [2] was over 0.5 µM each time.

As for `CC1=C(C(=O)Nc2ccc3cnccc3c2)C(c2ccc(C(F)(F)F)c(F)c2)n2nc(NC(=O)c3ccc(CN(C)C)cc3)cc2N1` (single isomer, unassigned) [Example 137A, 2-(4-((Dimethylamino)methyl)benzamido)-7-(3-fluoro-4-(trifluoromethyl)-phenyl)-N-(isoquinolin-6-yl)-5-methyl-4,7-dihydropyrazolo[1,5-a]pyrimidine-6-carboxamide], the Ki in experiment [1] and in experiment [2] was over 0.5 µM each time.

For the compound `CC1=C(C(=O)Nc2cc3cn[nH]c3cc2F)C(c2ccc(C(F)(F)F)c(F)c2)n2nnnc2N1` (single isomer, unassigned) [Example 40B, N-(6-fluoro-1H-indazol-5-yl)-7-(3-fluoro-4-(trifluoromethyl)phenyl)-5-methyl-4,7-dihydrotetrazolo[1,5-a]pyrimidine-6-carboxamide], the Ki in experiment [1] and in experiment [2] was 0.05 to 0.5 µM each time.

Take `CC1=C(C(=O)Nc2ccc3[nH]ncc3c2)C(c2ccc(F)cc2)n2nc(C(=O)N3CCOCC3)cc2N1` (stereo not shown) [Example 90, 7-(4-fluorophenyl)-N-(1H-indazol-5-yl)-5-methyl-2-(morpholine-4-carbonyl)-4,7-dihydropyrazolo[1,5-a]pyrimidine-6-carboxamide]: the Ki in experiment [1] and in experiment [2] was under 0.05 µM throughout.

On to `CC1=C(C(=O)Nc2ccc3cnccc3c2)C(c2ccc(C(F)(F)F)c(F)c2)n2nc(CN(C)C)cc2N1` (single isomer, unassigned) [Example 94A, 2-((dimethylamino)methyl)-7-(3-fluoro-4-(trifluoromethyl)phenyl)-N-(isoquinolin-6-yl)-5-methyl-4,7-dihydropyrazolo[1,5-a]pyrimidine-6-carboxamide], for which the Ki in experiment [1] and in experiment [2] was 0.05 to 0.5 µM throughout.

For `CC1=C(C(=O)Nc2ccc3cnccc3c2)C(c2ccc(C(F)(F)F)c(F)c2)n2nc(C(=O)N3C[C@H]4CN(C)C[C@H]4C3)cc2N1` (stereo partly shown) [Example 86, 7-(3-fluoro-4-(trifluoromethyl)phenyl)-N-(isoquinolin-6-yl)-5-methyl-2-(5-methyloctahydropyrrolo[3,4-c]pyrrole-2-carbonyl)-4,7-dihydropyrazolo[1,5-a]pyrimidine-6-carboxamide], the Ki in experiment [1] and in experiment [2] was under 0.05 µM in each case.

With `CC1=C(C(=O)Nc2ccc3[nH]ncc3c2)C(c2ccc(Cl)nc2)n2nc(C(F)(F)F)cc2N1` (single isomer, unassigned) [Example 32B, 7-(6-chloropyridin-3-yl)-N-(1H-indazol-5-yl)-5-methyl-2-(trifluoromethyl)-4,7-dihydropyrazolo[1,5-a]pyrimidine-6-carboxamide], the Ki in experiment [1] and in experiment [2] was under 0.05 µM throughout.
